According to the supplement of paper PMC10627819:

Legend:
[1] = test system: S. pneumoniae D39V; test: Bliss interaction score (quartile over a dose matrix) (fitness difference); higher = more antagonism (negative = synergy)
Outline: (§1)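 Growth in each well was taken as OD595 at entry into stationary phase. Dividing by the plate's robust no-drug mean and capping at 1 gave fitness, and single-drug fitness was inferred from the combination data. The Bliss score, observed minus product-expected fitness, is summarised by quartiles over technical, biological and donor/recipient replicates.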

[2] = test system: S. aureus DSM 20231; test: as above
Outline: as §1

[3] = test system: S. aureus Newman; test: as above
Outline: as §1

[4] = test system: B. subtilis 168; test: as above
Outline: as §1

[5] = test system: S. pneumoniae D39V; test: fitness (endpoint OD595 vs no drug) (fraction); higher = more growth
Outline: (§2)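 Growth medium was TSB, LB Lennox or CY, and plates were kept at 37 °C. Inoculation was at OD595 0.01 in 384-well plates, at 30 µl per well or 55 µl for S. pneumoniae. OD595 was monitored every 30 min for 14 h and background-subtracted using the first reading. Fitness is the optical density on entering stationary phase divided by the robust mean of no-drug controls, with values capped at 1.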

[6] = test system: S. aureus DSM 20231; test: as above
Outline: as §2

[7] = test system: S. aureus Newman; test: as above
Outline: as §2

[8] = test system: B. subtilis 168; test: as above
Outline: as §2
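Wherever Bliss interaction score (quartile over a dose matrix) is given: first quartile when negative (synergy) and third quartile when positive (antagonism).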

CCC[C@@H]1C[C@@H](C(=O)N[C@@H]([C@H]2O[C@H](SC)[C@H](O)[C@@H](O)[C@H]2O)[C@H](C)Cl)N(C)C1 [Clindamycin] + COc1cccc2c1C(=O)c1c(O)c3c(c(O)c1C2=O)C[C@@](O)(C(=O)CO)C[C@@H]3O[C@H]1C[C@H](N)[C@H](O)[C@H](C)O1 [Doxorubicin]
Conditions | Bliss interaction score
[1] | -0.0723
[2] | 0.075
[3] | 0.168
[4] | 0.0474

fitness
Conditions | partner 0.25 µg/mL | partner 0.5 µg/mL | partner 0.625 µg/mL | partner 1 µg/mL | partner 1.25 µg/mL | partner 2.5 µg/mL
[5], first compound 0.0125 µg/mL | 0.671 | 0.697 | – | 0.759 | – | –
[5], first compound 0.015 µg/mL | 0.751 | 0.746 | – | 0.649 | – | –
[5], first compound 0.025 µg/mL | 0.41 | 0.375 | – | 0.439 | – | –
[5], first compound 0.03 µg/mL | 0.588 | 0.576 | – | 0.495 | – | –
[5], first compound 0.05 µg/mL | 0.115 | 0.104 | – | 0.131 | – | –
[5], first compound 0.06 µg/mL | 0.299 | 0.288 | – | 0.256 | – | –
[6], first compound 0.125 µg/mL | – | – | 0.0581 | – | 0.0433 | 0.0502
[7], first compound 0.0312 µg/mL | – | – | 0.641 | – | 0.684 | 0.666
[7], first compound 0.125 µg/mL | – | – | 0.202 | – | 0.204 | 0.136
[8], first compound 0.0625 µg/mL | – | – | 0.496 | – | 0.482 | 0.394
[8], first compound 0.125 µg/mL | – | – | 0.363 | – | 0.408 | 0.3
[8], first compound 0.25 µg/mL | – | – | 0.347 | – | 0.364 | 0.214

fitness, [8], one replicate
Conditions | first compound 0.0039 µg/mL | first compound 0.0078 µg/mL | first compound 0.0156 µg/mL
partner 0.625 µg/mL | 0.952 | 0.832 | 0.818
partner 1.25 µg/mL | ≥ 1 | 0.858 | 0.793
partner 2.5 µg/mL | ≥ 1 | 0.851 | 0.852

CCC[C@@H]1C[C@@H](C(=O)N[C@@H]([C@H]2O[C@H](SC)[C@H](O)[C@@H](O)[C@H]2O)[C@H](C)Cl)N(C)C1 [Clindamycin] + C[C@@H]1O[C@@H]1P(=O)(O)O [Fosfomycin]
Conditions | Bliss interaction score
[1] | 0.11
[2] | -0.075
[3] | -0.253
[4] | 0.0321

Conditions | fitness
[5], first compound 0.0125 µg/mL, partner 1.25 µg/mL | 0.805
[5], first compound 0.0125 µg/mL, partner 2.5 µg/mL | 0.752
[5], first compound 0.0125 µg/mL, partner 5 µg/mL | 0.66
[5], first compound 0.015 µg/mL, partner 1.25 µg/mL | 0.787
[5], first compound 0.015 µg/mL, partner 2.5 µg/mL | 0.773
[5], first compound 0.015 µg/mL, partner 5 µg/mL | 0.736
[5], first compound 0.025 µg/mL, partner 1.25 µg/mL | 0.539
[5], first compound 0.025 µg/mL, partner 2.5 µg/mL | 0.497
[5], first compound 0.025 µg/mL, partner 5 µg/mL | 0.475
[5], first compound 0.03 µg/mL, partner 1.25 µg/mL | 0.621
[5], first compound 0.03 µg/mL, partner 2.5 µg/mL | 0.583
[5], first compound 0.03 µg/mL, partner 5 µg/mL | 0.525
[5], first compound 0.05 µg/mL, partner 1.25 µg/mL | 0.224
[5], first compound 0.05 µg/mL, partner 2.5 µg/mL | 0.203
[5], first compound 0.05 µg/mL, partner 5 µg/mL | 0.207
[5], first compound 0.06 µg/mL, partner 1.25 µg/mL | 0.368
[5], first compound 0.06 µg/mL, partner 2.5 µg/mL | 0.355
[5], first compound 0.06 µg/mL, partner 5 µg/mL | 0.291
[6], first compound 0.0312 µg/mL, partner 1.562 µg/mL | 0.292
[6], first compound 0.0312 µg/mL, partner 3.124 µg/mL | 0.104
[6], first compound 0.0625 µg/mL, partner 0.781 µg/mL | 0.122
[6], first compound 0.0625 µg/mL, partner 1.562 µg/mL | 0.0594
[6], first compound 0.0625 µg/mL, partner 3.124 µg/mL | 0.0236
[6], first compound 0.125 µg/mL, partner 0.781 µg/mL | 0.0473
[6], first compound 0.125 µg/mL, partner 1.562 µg/mL | 0.048
[6], first compound 0.125 µg/mL, partner 3.124 µg/mL | 0.0437
[7], first compound 0.0312 µg/mL, partner 0.781 µg/mL | 0.322
[7], first compound 0.0312 µg/mL, partner 1.562 µg/mL | 0.0838
[7], first compound 0.0312 µg/mL, partner 3.124 µg/mL | 0.0458
[7], first compound 0.0625 µg/mL, partner 0.781 µg/mL | 0.0719
[7], first compound 0.0625 µg/mL, partner 1.562 µg/mL | 0.0192
[7], first compound 0.0625 µg/mL, partner 3.124 µg/mL | 0.0091
[7], first compound 0.125 µg/mL, partner 0.781 µg/mL | 0.0513
[7], first compound 0.125 µg/mL, partner 1.562 µg/mL | 0.0428
[7], first compound 0.125 µg/mL, partner 3.124 µg/mL | 0.0521
[8], first compound 0.0625 µg/mL, partner 1.562 µg/mL | 0.493
[8], first compound 0.0625 µg/mL, partner 3.124 µg/mL | 0.419
[8], first compound 0.0625 µg/mL, partner 6.248 µg/mL | 0.208
[8], first compound 0.125 µg/mL, partner 1.562 µg/mL | 0.311
[8], first compound 0.125 µg/mL, partner 3.124 µg/mL | 0.234
[8], first compound 0.125 µg/mL, partner 6.248 µg/mL | 0.129
[8], first compound 0.25 µg/mL, partner 1.562 µg/mL | 0.226
[8], first compound 0.25 µg/mL, partner 3.124 µg/mL | 0.183
[8], first compound 0.25 µg/mL, partner 6.248 µg/mL | 0.095

fitness, [8], one replicate
Conditions | first compound 0.0039 µg/mL | first compound 0.0078 µg/mL | first compound 0.0156 µg/mL
partner 1.562 µg/mL | 0.7 | 0.637 | 0.556
partner 3.124 µg/mL | 0.633 | 0.564 | 0.51
partner 6.248 µg/mL | 0.55 | 0.549 | 0.45

CCC[C@@H]1C[C@@H](C(=O)N[C@@H]([C@H]2O[C@H](SC)[C@H](O)[C@@H](O)[C@H]2O)[C@H](C)Cl)N(C)C1 [Clindamycin] + C[n+]1ccc(-c2cc[n+](C)cc2)cc1 [Paraquat]
Conditions | Bliss interaction score
[1] | 0.0554
[2] | -0.0477
[3] | -0.112
[4] | 0.0483

fitness
Conditions | partner 1.25 µg/mL | partner 1.5 µg/mL | partner 2.5 µg/mL | partner 3 µg/mL | partner 5 µg/mL | partner 6 µg/mL
[5], first compound 0.0125 µg/mL | – | 0.744 | – | 0.749 | – | 0.733
[5], first compound 0.025 µg/mL | – | 0.489 | – | 0.482 | – | 0.458
[5], first compound 0.05 µg/mL | – | 0.24 | – | 0.228 | – | 0.195
[6], first compound 0.0625 µg/mL | 0.181 | – | 0.192 | – | 0.14 | –
[6], first compound 0.125 µg/mL | 0.0613 | – | 0.113 | – | 0.0771 | –
[7], first compound 0.0312 µg/mL | 0.607 | – | 0.57 | – | 0.516 | –
[7], first compound 0.0625 µg/mL | 0.271 | – | 0.241 | – | 0.207 | –
[7], first compound 0.125 µg/mL | 0.0526 | – | 0.0427 | – | 0.0913 | –
[8], first compound 0.0625 µg/mL | 0.607 | – | 0.513 | – | 0.512 | –
[8], first compound 0.125 µg/mL | 0.392 | – | 0.366 | – | 0.359 | –
[8], first compound 0.25 µg/mL | 0.363 | – | 0.352 | – | 0.281 | –

fitness, one replicate
Conditions | first compound 0.0039 µg/mL | first compound 0.0078 µg/mL | first compound 0.015 µg/mL | first compound 0.0156 µg/mL | first compound 0.03 µg/mL | first compound 0.06 µg/mL
[5], partner 1.5 µg/mL | – | – | 0.934 | – | 0.85 | 0.692
[5], partner 3 µg/mL | – | – | 0.949 | – | 0.92 | 0.763
[5], partner 6 µg/mL | – | – | ≥ 1 | – | 0.914 | 0.805
[8], partner 1.25 µg/mL | ≥ 1 | 0.914 | – | 0.847 | – | –
[8], partner 2.5 µg/mL | 0.958 | 0.846 | – | 0.857 | – | –
[8], partner 5 µg/mL | 0.972 | 0.873 | – | 0.83 | – | –

CCC[C@@H]1C[C@@H](C(=O)N[C@@H]([C@H]2O[C@H](SC)[C@H](O)[C@@H](O)[C@H]2O)[C@H](C)Cl)N(C)C1 [Clindamycin] + Cc1cc(NS(=O)(=O)c2ccc(N)cc2)no1 [Sulfamethoxazol]
Conditions | Bliss interaction score
[1] | -0.0442
[2] | -0.0287
[3] | 0.0865
[4] | -0.0677

fitness
Conditions | partner 1 µg/mL | partner 2 µg/mL | partner 4 µg/mL
[5], first compound 0.0125 µg/mL | 0.687 | 0.711 | 0.739
[5], first compound 0.025 µg/mL | 0.462 | 0.443 | 0.45
[5], first compound 0.05 µg/mL | 0.206 | 0.191 | 0.219
[6], first compound 0.0625 µg/mL | 0.0971 | 0.0985 | 0.0862
[6], first compound 0.125 µg/mL | 0.0349 | 0.0282 | 0.0345
[7], first compound 0.0312 µg/mL | 0.757 | – | –
[7], first compound 0.125 µg/mL | 0.149 | – | –
[8], first compound 0.0625 µg/mL | 0.571 | 0.544 | 0.579
[8], first compound 0.125 µg/mL | 0.422 | 0.395 | 0.431
[8], first compound 0.25 µg/mL | 0.33 | 0.321 | 0.332

one replicate
Conditions | fitness
[5], first compound 0.015 µg/mL, partner 1 µg/mL | 0.873
[5], first compound 0.015 µg/mL, partner 2 µg/mL | 0.914
[5], first compound 0.015 µg/mL, partner 4 µg/mL | 0.812
[5], first compound 0.03 µg/mL, partner 1 µg/mL | 0.783
[5], first compound 0.03 µg/mL, partner 2 µg/mL | 0.777
[5], first compound 0.03 µg/mL, partner 4 µg/mL | 0.717
[5], first compound 0.06 µg/mL, partner 1 µg/mL | 0.64
[5], first compound 0.06 µg/mL, partner 2 µg/mL | 0.69
[5], first compound 0.06 µg/mL, partner 4 µg/mL | 0.621
[7], first compound 0.0312 µg/mL, partner 8 µg/mL | 0.896
[7], first compound 0.0625 µg/mL, partner 8 µg/mL | 0.934
[7], first compound 0.125 µg/mL, partner 8 µg/mL | 0.709
[8], first compound 0.0039 µg/mL, partner 1 µg/mL | ≥ 1
[8], first compound 0.0039 µg/mL, partner 2 µg/mL | ≥ 1
[8], first compound 0.0039 µg/mL, partner 4 µg/mL | ≥ 1
[8], first compound 0.0078 µg/mL, partner 1 µg/mL | 0.884
[8], first compound 0.0078 µg/mL, partner 2 µg/mL | 0.853
[8], first compound 0.0078 µg/mL, partner 4 µg/mL | 0.868
[8], first compound 0.0156 µg/mL, partner 1 µg/mL | 0.866
[8], first compound 0.0156 µg/mL, partner 2 µg/mL | 0.981
[8], first compound 0.0156 µg/mL, partner 4 µg/mL | 0.907
[8], first compound 0.0625 µg/mL, partner 0.5 µg/mL | 0.666
[8], first compound 0.125 µg/mL, partner 0.5 µg/mL | 0.466
[8], first compound 0.25 µg/mL, partner 0.5 µg/mL | 0.363
